In patent US8596557B2, “Pest control aerosol sprayer” (Fumakilla Limited, priority 2008, dated 2013):

Assays:
[1] = Back-fire test of aerosol sprayers loaded with various gases (Test Example 1); settings: sprayed 5 seconds towards burner flame, sprayer at 25° C.
Experimental: (§1) Test Example 1 relates to back-fire tests for the aerosol sprayer using various gases. Specifically, aerosol sprayers loaded with various gases acting as both propellant and refrigerant were prepared. And, after these aerosol sprayers were immersed in a thermostatic bath at 25° C. for 1 hour, each of them was arranged with the flame, as a fire origin, of an ignited burner so that the spray nozzle of its head cap and the flame lied horizontally in the same height. And, each gas was sprayed from the spray nozzle of the head cap in the aerosol sprayer for 5 seconds towards the flame as the fire origin to check if there was a backfire. This was repeated a plurality of times. Here, the fire origin was spaced from the spray nozzle at a distance of 15 cm and at a distance of 60 cm.
Further, HFO-1234ze as another alternative for chlorofluorocarbon was also subjected to the same backfire tests as for HFC-152a and HFC-134a in Text Example 1 mentioned above.

[2] = Back-fire test on content of HFC-152a / HFO-1234ze mixed with LPG or dimethyl ether (Test Example 2); settings: varied mixture ratio, sprayed 5 seconds towards burner flame
Experimental: as §1, with “In Test” for “Test”, “Example 2, aerosol sprayers using HFC-152a as an alternative for chlorofluorocarbon were tested on its content. This, too,” for “Example 1”, “back-fire tests.” for “back-fire tests for the aerosol sprayer using various gases.”, “with HFC-152a alone” for “with various gases acting as both propellant”, “and mixtures of HFC-15a with LPG or dimethyl ether (in varied mixture ratio)” for “and refrigerant”, “15” for “15 cm and at a distance of 60”
Further, HFO-1234ze as another alternative for chlorofluorocarbon was also tested on its content as in Text Example 2 above. Specifically, aerosol sprayers loaded with HFO-1234ze alone and mixtures of HFO-1234ze with LPG or dimethyl ether (in varied mixture ratio) were prepared. […]

Periplaneta fuliginosa = experiment: Biological test: knockdown and fatality after 3 second spray from 50 cm (Test Example 3); type: in vivo; settings: female adult
Experimental: (§2) In Test Example 3, modes of spraying from the spray nozzle 10 in the head cap 2 were examined. This is to examine the refrigerating and behavioral inhibiting effects on a noxious insect by a noxious insect behavioral inhibitor A which is sprayed from the spray nozzle 10. Specifically, a wooden flooring was prepared on which a glass ring (having a diameter of 9 cm and a height of 6 cm) was placed. […] And, one female adult of Periplaneta fuliginosa is introduced inside of the glass ring. On the other hand, two different head caps were prepared, one provided with a single spray nozzle 10 and the other provided with a pressure reducer means comprising an upper and a lower spray nozzle 10a and 10b. And, using them, the noxious insect behavioral inhibitor A is sprayed for 3 seconds toward the Periplaneta fuliginosa from a distance of 50 cm therefrom, and the state of the Periplaneta fuliginosa thereafter (possible knockdown after 2 minutes and after 1 hour and fatality after 24 hours) is observed. Further, the minimum temperatures of a target area of spraying are measured. And, the room temperature is 25° C., and the noxious insect behavioral inhibitor A is HFC-152a alone (100%). The two head caps 2, the one with the single spray nozzle 10 and the other with the two spray nozzles 10, are made to spray substantially at a identical rate of spraying.
(§3) Also, in Test Example 3, noxious insect behavioral inhibitors containing HFO-1234ze alone (100%), at a content of 75% and at a content of 50% were examined. What is mixed is dimethyl ether.

[3] = Mode of spraying: average particle size and minimum temperature of target area (Test Example 3); type: physicochemical
Experimental: as §2, §3

[4] = single spray nozzle (1.5 mm diameter), n = 10
[5] = two spray nozzles (upper 1.5 mm, lower 1.8 mm), n = 10
[6] = two spray nozzles (upper 1.5 mm, lower 1.8 mm)

| SMILES | Backfire, 15 cm distant from Fire Origin [1] | Backfire, 60 cm distant from Fire Origin [1] | Backfire, 15 cm distant from Fire Origin (content test) [2] | Fatality after 24 hours (Periplaneta fuliginosa; [4]) | Knockdown rate after 1 hour (Periplaneta fuliginosa; [4]) | Knockdown rate after 2 minutes (Periplaneta fuliginosa; single spray nozzle (1.5 mm diameter), n = 10, room temperature 25° C.) | Fatality after 24 hours (Periplaneta fuliginosa; [5]) | Knockdown rate after 2 minutes (Periplaneta fuliginosa; [5]) | Knockdown rate after 1 hour (Periplaneta fuliginosa; [5]) | Average particle size ([3]; single spray nozzle (1.5 mm diameter)) | Average particle size [3, 6] |
| --- | --- | --- | --- | --- | --- | --- | --- | --- | --- | --- | --- |
| FCC(F)(F)F [HFC-134a (100%)] | Not Backfired | Not Backfired | – | – | – | – | – | – | – | – | – |
| CC(F)F [HFC-152a (100%), 1,1-difluoroethane] | Not Backfired | Not Backfired | Not Back-fired | 10% | 40% | 90% | 100% | 100% | 100% | 57 μm | 97 μm |
| FC=CC(F)(F)F [HFO-1234ze (100%), 1,3,3,3-tetrafluoropropene] | Not Backfired | Not Backfired | Not Back-fired | – | – | – | 60% | 100% | 100% | – | 120 μm |
| COC [dimethyl ether (100%), dimethyl ether, reference compound] | Backfired | Backfired | – | – | – | – | – | – | – | – | – |
